Test results as given in US8871753B2, “Macrocyclic compounds and their use as kinase inhibitors” (Incyte Corporation, priority 2008, dated 2014).
Structures can show the parent of a compound that is named as a salt. Where two headings read alike, the source gives them in different places.

Columns and labels:
Format in all cases: biochemical
[1] = molecular target: T1, human JAK1 (a.a. 837-1142) (Homo sapiens, UniProt P23458); assay: In vitro JAK kinase assay (HTRF, phosphorylation of a biotinylated peptide), JAK1; conditions: read-out: JAK1 IC50
T1 construct: human JAK1 (a.a. 837-1142); His tag (N); made in house; host or cells: insect cells (baculovirus)
Summary of the method: (§1)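 Kinase activity was measured as phosphorylation of a biotinylated peptide, with ATP at 90 μM for JAK1, 30 μM for JAK2 and 3 μM for JAK3. Reactions ran 1 hr at room temperature, were stopped with EDTA plus SA-APC and Eu-Py20, and were read by HTRF after 40 minutes of antibody binding.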

[2] = molecular target: T2, Recombinant Human Anaplastic Lymphoma Kinase (Homo sapiens, UniProt Q9UM73); assay: ALK HTRF kinase assay
T2 construct: purchased Invitrogen, Carlsbad, Calif
Excerpt: Materials: Recombinant Human Anaplastic Lymphoma Kinase was purchased from Invitrogen, Carlsbad, Calif. Peptide substrate (Biotin-[…]-amide) was custom synthesized at EZBiolab, Westfield, Ind. Streptavidin conjugated SureLight-Allophycocyania and LANCE Eu-W1024 labeled anti-phosphotyrosine antibody were from Perkin-Elmer, Boston, Mass. Microplates were from Corning Inc., Acton, Mass. All other reagents were from Sigma, St. Louis, Mo.
Plates were read in Fusion α-FP instrument (Perkin-Elmer). […] Signal=Bottom+(Top−Bottom)/(1+10^((Log(IC50)−Log [I])*Hill Slope) Bottom and Top refer to the post and pre-transition baselines, respectively.

TYK2 = TYK2 (Homo sapiens, UniProt P29597); assay: TYK2 kinase inhibition (Table A1)
[3] = molecular target: T3, human JAK2 (a.a. 828-1132) (Homo sapiens, UniProt O60674); assay: In vitro JAK kinase assay (HTRF, phosphorylation of a biotinylated peptide), JAK2
T3 construct: JAK2 (a.a. 828-1132); His tag (N); made in house; host or cells: insect cells (baculovirus)
Summary of the method: as §1

[4] = molecular target: T4, human JAK3 (a.a. 781-1124) (Homo sapiens, UniProt P52333); assay: In vitro JAK kinase assay (HTRF, phosphorylation of a biotinylated peptide), JAK3
T4 construct: JAK3 (a.a. 781-1124); His tag (N); made in house; host or cells: insect cells (baculovirus)
Summary of the method: as §1

[5] = method AA1 (90 μM ATP) or AA2 (1000 μM ATP), not stated per value
[6] = compound at 500 nM or 1 mM, 90 μM ATP
[7] = method AA1 (30 μM ATP) or AA2 (1000 μM ATP), not stated per value
[8] = method AA1 (3 μM ATP) or AA2 (1000 μM ATP), not stated per value

T4 sequence (P52333 781-1124): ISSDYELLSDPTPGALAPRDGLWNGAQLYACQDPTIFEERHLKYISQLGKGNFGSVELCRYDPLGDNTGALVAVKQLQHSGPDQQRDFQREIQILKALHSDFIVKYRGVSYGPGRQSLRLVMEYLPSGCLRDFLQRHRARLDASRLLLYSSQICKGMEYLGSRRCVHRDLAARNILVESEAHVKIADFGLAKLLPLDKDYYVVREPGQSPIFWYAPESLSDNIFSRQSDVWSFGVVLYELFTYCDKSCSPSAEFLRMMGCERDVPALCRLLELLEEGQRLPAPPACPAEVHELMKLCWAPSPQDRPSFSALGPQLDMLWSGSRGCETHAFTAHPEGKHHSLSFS
Chain of TYK2 (P29597 whole entry): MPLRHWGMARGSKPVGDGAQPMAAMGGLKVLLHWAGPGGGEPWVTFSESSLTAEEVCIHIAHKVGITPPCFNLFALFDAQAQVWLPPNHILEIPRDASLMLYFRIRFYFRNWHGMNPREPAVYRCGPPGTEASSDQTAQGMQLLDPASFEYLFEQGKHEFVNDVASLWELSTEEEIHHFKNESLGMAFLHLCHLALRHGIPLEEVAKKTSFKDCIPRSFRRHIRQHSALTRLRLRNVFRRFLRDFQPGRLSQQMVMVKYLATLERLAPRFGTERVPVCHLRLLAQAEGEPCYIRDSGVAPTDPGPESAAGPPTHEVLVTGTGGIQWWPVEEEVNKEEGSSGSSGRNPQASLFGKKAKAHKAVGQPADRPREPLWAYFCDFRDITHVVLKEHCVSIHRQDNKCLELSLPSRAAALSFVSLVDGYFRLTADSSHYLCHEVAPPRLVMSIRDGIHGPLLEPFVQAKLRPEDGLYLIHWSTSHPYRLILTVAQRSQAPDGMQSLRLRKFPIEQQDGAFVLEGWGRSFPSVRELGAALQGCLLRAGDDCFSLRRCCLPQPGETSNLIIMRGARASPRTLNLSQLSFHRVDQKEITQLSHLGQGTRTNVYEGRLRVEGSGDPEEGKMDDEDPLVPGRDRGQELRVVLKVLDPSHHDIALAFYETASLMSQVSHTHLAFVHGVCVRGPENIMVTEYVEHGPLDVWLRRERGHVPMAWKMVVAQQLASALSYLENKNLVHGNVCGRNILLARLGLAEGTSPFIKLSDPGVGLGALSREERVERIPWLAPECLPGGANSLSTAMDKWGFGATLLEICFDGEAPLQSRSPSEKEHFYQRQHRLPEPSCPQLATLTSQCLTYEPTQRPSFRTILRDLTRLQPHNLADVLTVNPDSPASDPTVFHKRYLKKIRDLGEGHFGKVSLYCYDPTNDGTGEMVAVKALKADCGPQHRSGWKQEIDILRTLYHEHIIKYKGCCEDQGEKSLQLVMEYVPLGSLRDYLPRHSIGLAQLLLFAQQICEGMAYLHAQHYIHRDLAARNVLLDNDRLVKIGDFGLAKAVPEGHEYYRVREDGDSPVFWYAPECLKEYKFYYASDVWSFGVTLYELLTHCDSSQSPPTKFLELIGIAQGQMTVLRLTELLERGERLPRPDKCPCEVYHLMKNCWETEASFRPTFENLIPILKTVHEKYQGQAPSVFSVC
T3 sequence (O60674 828-1132): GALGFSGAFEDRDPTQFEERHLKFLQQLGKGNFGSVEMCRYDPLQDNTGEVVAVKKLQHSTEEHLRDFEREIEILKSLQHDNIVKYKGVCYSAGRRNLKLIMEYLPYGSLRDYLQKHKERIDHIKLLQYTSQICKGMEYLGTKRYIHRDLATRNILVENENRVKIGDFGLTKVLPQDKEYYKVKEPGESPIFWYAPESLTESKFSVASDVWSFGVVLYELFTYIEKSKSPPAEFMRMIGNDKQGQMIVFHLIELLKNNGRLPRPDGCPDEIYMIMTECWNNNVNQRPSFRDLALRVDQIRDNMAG
T1 sequence (P23458 849-1154): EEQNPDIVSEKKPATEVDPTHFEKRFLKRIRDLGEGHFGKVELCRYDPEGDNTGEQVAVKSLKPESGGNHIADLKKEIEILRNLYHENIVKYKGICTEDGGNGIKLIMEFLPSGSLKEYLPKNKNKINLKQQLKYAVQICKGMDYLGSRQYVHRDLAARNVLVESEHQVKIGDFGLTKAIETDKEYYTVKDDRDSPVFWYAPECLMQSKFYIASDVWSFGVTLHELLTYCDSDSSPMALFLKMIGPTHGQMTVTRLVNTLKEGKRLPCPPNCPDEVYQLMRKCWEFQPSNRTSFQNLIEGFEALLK
T2 sequence (Q9UM73 19-1620): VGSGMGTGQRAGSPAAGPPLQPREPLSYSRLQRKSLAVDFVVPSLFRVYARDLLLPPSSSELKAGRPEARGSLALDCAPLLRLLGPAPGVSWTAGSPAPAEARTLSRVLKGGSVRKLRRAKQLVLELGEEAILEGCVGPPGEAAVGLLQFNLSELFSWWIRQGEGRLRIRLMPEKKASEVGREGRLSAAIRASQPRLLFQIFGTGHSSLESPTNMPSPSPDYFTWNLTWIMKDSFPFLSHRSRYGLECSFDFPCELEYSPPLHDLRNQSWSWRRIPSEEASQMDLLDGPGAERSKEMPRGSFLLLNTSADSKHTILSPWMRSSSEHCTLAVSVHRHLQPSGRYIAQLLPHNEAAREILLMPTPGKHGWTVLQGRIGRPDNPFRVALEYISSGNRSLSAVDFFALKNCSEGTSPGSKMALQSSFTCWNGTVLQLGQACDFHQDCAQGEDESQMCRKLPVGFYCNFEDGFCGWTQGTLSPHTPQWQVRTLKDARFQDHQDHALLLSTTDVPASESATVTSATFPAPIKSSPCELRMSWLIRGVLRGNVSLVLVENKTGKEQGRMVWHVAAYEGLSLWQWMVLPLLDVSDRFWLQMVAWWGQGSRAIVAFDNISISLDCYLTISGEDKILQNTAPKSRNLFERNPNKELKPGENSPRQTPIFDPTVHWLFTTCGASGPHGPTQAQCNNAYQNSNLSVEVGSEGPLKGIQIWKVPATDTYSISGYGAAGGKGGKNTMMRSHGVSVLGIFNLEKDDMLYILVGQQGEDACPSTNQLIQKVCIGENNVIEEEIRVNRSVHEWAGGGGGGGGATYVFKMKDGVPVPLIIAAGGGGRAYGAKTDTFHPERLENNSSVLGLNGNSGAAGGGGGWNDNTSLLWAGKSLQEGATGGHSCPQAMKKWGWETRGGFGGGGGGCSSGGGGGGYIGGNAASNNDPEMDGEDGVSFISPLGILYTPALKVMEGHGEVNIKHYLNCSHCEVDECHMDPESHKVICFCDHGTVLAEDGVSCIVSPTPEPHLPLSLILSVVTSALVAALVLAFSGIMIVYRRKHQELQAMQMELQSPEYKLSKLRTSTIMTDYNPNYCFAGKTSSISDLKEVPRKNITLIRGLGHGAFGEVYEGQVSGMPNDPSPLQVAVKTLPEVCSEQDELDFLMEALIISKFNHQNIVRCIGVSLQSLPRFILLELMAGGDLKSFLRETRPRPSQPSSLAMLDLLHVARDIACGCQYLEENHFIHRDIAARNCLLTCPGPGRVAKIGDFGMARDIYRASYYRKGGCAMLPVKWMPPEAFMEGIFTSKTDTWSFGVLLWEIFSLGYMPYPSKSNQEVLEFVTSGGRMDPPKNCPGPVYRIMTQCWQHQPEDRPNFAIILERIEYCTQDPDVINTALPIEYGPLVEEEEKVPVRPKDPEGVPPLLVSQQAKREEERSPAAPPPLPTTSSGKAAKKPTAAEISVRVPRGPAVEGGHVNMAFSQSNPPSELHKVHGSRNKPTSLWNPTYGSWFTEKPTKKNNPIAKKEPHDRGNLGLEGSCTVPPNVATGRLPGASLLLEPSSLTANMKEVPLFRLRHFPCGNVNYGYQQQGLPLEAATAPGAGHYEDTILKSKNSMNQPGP

## O=C(CC1CCN(C(=O)c2ccno2)CC1)Nc1ccc2cc1CCc1cncc(c1)Nc1ncc(Cl)c(n1)N2 [Example A128, N-[6-Chloro-2,4,8,18,22-pentaazatetracyclo[14.3.1.1(3,7).1(9,13)]docosa-1(20),3(22),4,6,9(21),10,12,16,18-nonaen-12-yl]-2-[1-(isoxazol-5-ylcarbonyl)piperidin-4-yl]acetamide bis(trifluoroacetate)]
[1]; [5]
  IC50: 0.6 nM
[2]; [6]
  ALK % of inhibition at a concentration of 500 nM or 1 mM: 34%
TYK2
  IC50: 1.6 nM
[3]; [7]
  IC50: 4.1 nM
[4]; [8]
  IC50: 64 nM

## COc1cccc(S(=O)(=O)N2CCC(CC(=O)Nc3ccc4cc3CCc3cccc(c3)Nc3ncc(Cl)c(n3)N4)CC2)c1 [Example A206, N-[6-Chloro-2,4,8,22-tetraazatetracyclo[14.3.1.1(3,7).1(9,13)]docosa-1(20),3(22),4,6,9(21),10,12,16,18-nonaen-12-yl]-2-{1-[(3-methoxyphenyl)sulfonyl]piperidin-4-yl}acetamide trifluoroacetate]
[2]; [6]
  ALK % of inhibition at a concentration of 500 nM or 1 mM: 15%
TYK2
  IC50: > 200 nM
[3]; [7]
  IC50: > 200 nM
[4]; [8]
  IC50: > 200 nM

## Cc1ccc(C#N)c(N2CCC(CC(=O)Nc3ccc4cc3CCc3cncc(c3)Nc3ncc(Cl)c(n3)N4)CC2)n1 [Example A238, N-[6-Chloro-2,4,8,18,22-pentaazatetracyclo[14.3.1.1(3,7).1(9,13)]docosa-1(20),3(22),4,6,9(21),10,12,16,18-nonaen-12-yl]-2-[1-(3-cyano-6-methylpyridin-2-yl)piperidin-4-yl]acetamide tris(trifluoroacetate)]
[1]; [5]
  IC50: 18 nM
[2]; [6]
  ALK % of inhibition at a concentration of 500 nM or 1 mM: 15%
[3]; [7]
  IC50: 244 nM
[4]; [8]
  IC50: > 400 nM

## [O-][S+]1CCc2cccc(c2)Nc2ncc(Cl)c(n2)Nc2cccc1c2 (centres unmarked) [Example D23, 6-Chloro-14-thia-2,4,8,23-tetraazatetracyclo[15.3.1.1(3,7).1(9,13)]tricosa-1(21),3(23),4,6,9(22),10,12,17,19-nonaene 14-oxide trifluoroacetate]
[2]; Table D1, 90 μM ATP
  IC50: 1210 nM
TYK2; Table D1
  IC50: 23 nM
[3]; Table D1
  IC50: 4.9 nM
[4]; Table D1
  IC50: 21 nM

## N#Cc1ccc(C(=O)N2CCC(CC(=O)Nc3ccc4cc3CCc3cncc(c3)Nc3ncc(Cl)c(n3)N4)CC2)cc1 [Example A190, N-[6-Chloro-2,4,8,18,22-pentaazatetracyclo[14.3.1.1(3,7).1(9,13)]docosa-1(20),3(22),4,6,9(21),10,12,16,18-nonaen-12-yl]-2-[1-(4-cyanobenzoyl)piperidin-4-yl]acetamide bis(trifluoroacetate)]
[2]; [6]
  ALK % of inhibition at a concentration of 500 nM or 1 mM: 27%
TYK2
  IC50: > 200 nM
[3]; [7]
  IC50: > 200 nM
[4]; [8]
  IC50: > 200 nM

## Cc1ccccc1S(=O)(=O)Nc1ccc2cc1CCc1cccc(c1)Nc1ncc(Cl)c(n1)N2 [Example B149, N-[6-Chloro-2,4,8,22-tetraazatetracyclo[14.3.1.1(3,7).1(9,13)]docosa-1(20), 3(22),4,6,9(21),10,12,16,18-nonaen-12-yl]-2-methylbenzenesulfonamide trifluoroacetate]
[1]; Table B1
  IC50: 0.15 nM
[2]; Table B1, cells without percent sign
  IC50: 350 nM
TYK2; Table B1
  IC50: 0.51 nM
[4]; Table B1
  IC50: 2.4 nM

## O=C(Nc1ccc2cc1CCc1cncc(c1)Nc1ncc(Cl)c(n1)N2)N1CCN(c2ncc(C(F)(F)F)cc2Cl)CC1 [Example B302, N-[6-Chloro-2,4,8,18,22-pentaazatetracyclo[14.3.1.1(3,7).1(9,13)]docosa-1(20),3(22),4,6,9(21),10,12,16,18-nonaen-12-yl]-4-[3-chloro-5-(trifluoromethyl)pyridin-2-yl]piperazine-1-carboxamide tris(trifluoroacetate)]
[1]; Table B1
  IC50: 119 nM
[2]; percentage inhibition of the example compound at a concentration of 500 nM or 1 mM (not specified which)
  ALK % of inhibition at a concentration of 500 nM or 1 mM: 69%
[3]; Table B1
  IC50: > 400 nM
[4]; Table B1
  IC50: > 400 nM
